The values that follow come from patent US8481284B2, “Process of preparing conjugates of allium organosulfur compounds with amino acids, peptides, and proteins” (Wisconsin Alumni Research Foundation, priority 2009, dated 2013).

Assay [1] has as its system quinone reductase (QR) activity in Hepa 1c1c7 cells. Description: QR (quinone reductase) induction in Hepa 1c1c7 cells. The class given is cell-based. The note with it: for QR induction in the presence of increasing exogenous GSH: 31 μg/ml conjugate, increasing exogenous GSH in medium; for QR induction at a single dose: 31 μg/ml; for QR induction at a single dose / EC (2-fold QR induction): Hepa 1c1c7 cells; for EC (2-fold QR induction): read-out: CD values (dose where there was a doubling of QR). As to the method:
Specifically, the mixed disulfide conjugates as prepared similar to the pure conjugates of Example 10 or purified from mixtures prepared in Example 11 were used with the Hepa 1c1c7 cell line as disclosed in Prochaska, et al., 1992. Each conjugate was tested over a dose range and increases in quinone reductase (QR) activity was used as a biomarker for phase II enzyme induction, an established mechanism of cancer chemoprotection. […] Results were considered valid as long as cell viability in the assay was >50% as recommended by the established protocol. Typical experimental results are shown for the CySSPe conjugate (FIG. 11), and summary results are provided for all conjugates in terms of relative potency (CD values) for QR induction (Table 8).
(§1) Generally, redox modulation and thiol upregulation is considered a defense mechanism to pathological processes in cells. These mechanisms were analyzed in the mixed disulfide conjugates in both Hepa 1c1c7 and RAW 264.7 macrophage cell lines. Evidence of redox modulation was obtained in terms of 1) attenuation of QR inducing activity with increasing reducing capacity of cells through exogenous GSH addition, 2) increases in cellular glutathione (GSH) and 3) export/enrichment of thiols in the extracellular fluid.

In assay [2] the test system is nitric oxide (NO) in lipopolysaccharide-activated macrophages (RAW 264.7). The assay can be described thus: Inhibition of NO evolution in lipopolysaccharide-activated macrophages (RAW 264.7), Griess reagent. The class given is cell-based, murine. The note with it: Mus musculus, RAW264.7; for IC50: LPS 1 μg/ml, 24 hour incubation; for inhibition at 125 µg/mL: at 125 μg/ml, the highest level tested. As to the method:
Each conjugate was tested over a dose range and the evolution of NO over the 24 hour incubation period was measured as […] by the Griess reagent using established protocols ([…] et al., 1996). The dose where a 50% inhibition of NO evolution occurred (IC50) relative to the control cells without added conjugate was estimated by sigmoidal curve-fitting as a relative measure of anti-inflammatory activity, with lower IC50 values representing greater potency. […] Typical experimental results are shown for the GSSPe conjugate (FIG. 12), and summary results are provided for all conjugates in terms of relative potency (IC50 values) for NO inhibition (Table 9).

In the next assay the test system is RAW 264.7 cells. The assay can be described thus: Thiol export (extracellular thiols, DTNB) by macrophages. The note with it: compared with other species or control cells. The class given is cell-based, murine. Here is the method:
FIG. 15 depicts the extracellular thiol concentrations of RAW 264.7 cells treated with CySSR and 5,5′-dithio-bis(2-nitrobenzoic acid) (DTNB) as analyzed in Example 31.
as §1
Specifically, CySSR as prepared in Example 11 was added to macrophages. Thiol export by the macrophages was then analyzed. All CySSR species tested at 31 μg/ml induced thiol export by macrophages by as much as 20-35 times level observed for untreated control cells. Thiols were measured by Ellman's reagent (DTNB). […] Cellular exporting of thiols represents another mechanism by which cells respond to oxidative stress by exporting reducing equivalents to restore extracellular redox homeostasis.

Assay [3] concerns intracellular GSH in Hepa 1c1c7 cells. Description: Intracellular GSH content of Hepa 1c1c7 cells after conjugate addition. The class given is cell-based. The conditions noted are these: over the first 10 hours. Here is the method:
Another related consequence of adding the conjugates to the cells was an increase in cellular GSH. This response is considered to be a general antioxidant defense as well as one that provides specific protection to cancer (Kim et al., 2009) and was assessed in the next Example.
Specifically, GSSP was prepared similar to the GSSR conjugates in Example 11 and added to Hepa 1c1c7 cells. The changes in intracellular GSH content was measured after lysis of the cells at pre-determined intervals after addition of the GSSP conjugate.

The mark [4] stands for this setting: molar equivalent of the μg/ml value.

Where two headings read alike, the source gives them in different places.

Consider `C=CCSSC[C@H](NC(=O)CC[C@H](N)C(=O)O)C(=O)NCC(=O)O` [GSSA, S-2-propenyl-L-mercaptoglutathione], for which the “QR induction in the presence of increasing exogenous GSH” value in assay [1] is given as “progressively attenuated”. Also, the “QR induction at a single dose” value in assay [1] is given as “nearly a doubling of QR”. Besides, the EC (2-fold QR induction) in assay [1] (cell viability >50%) is 33 µg/mL; in assay [1] (setting [4]) it was 87 µM. Also, the results for the IC50 in assay [2] (cell viability ≧80%) and in assay [2] (setting [4]) were 87 µg/mL and 230 µM, respectively.
Turning to `CCSSC[C@H](NC(=O)CC[C@H](N)C(=O)O)C(=O)NCC(=O)O` [GSSE, S-ethyl-L-mercaptoglutathione], the EC (2-fold QR induction) in assay [1] (cell viability >50%) was determined as 72 µg/mL; in assay [1] (setting [4]), 200 µM. The same compound yielded an inhibition at 125 µg/mL in assay [2] of 25%.
Consider `CCSSC[C@@H](N)C(=O)O` [CySSE, S-ethyl-L-mercaptocysteine], for which the results for the EC (2-fold QR induction) in assay [1] (cell viability >50%) and in assay [1] (setting [4]) were 76 µg/mL and 420 µM, respectively. Besides, the IC50 in assay [2] (cell viability ≧80%) was found to be 102 µg/mL; in assay [2] (setting [4]), 560 µM.
Turning to `C/C=C/SSC[C@H](NC(=O)CC[C@H](N)C(=O)O)C(=O)NCC(=O)O` [GSSPe, S-1-propenyl-L-mercaptoglutathione], the values for the EC (2-fold QR induction) in assay [1] (cell viability >50%) and in assay [1] (setting [4]) were 5.3 µg/mL and 14 µM, respectively. Moreover, the IC50 in assay [2] (cell viability ≧80%) is 4.6 µg/mL; in assay [2] (setting [4]), 16 µM.
With `C/C=C/SSC[C@@H](N)C(=O)O` [CySSPe, S-1-propenyl-L-mercaptocysteine], the EC (2-fold QR induction) is 4.8 µg/mL in assay [1] (cell viability >50%) and 25 µM in assay [1] (setting [4]). The IC50 in assay [2] (cell viability ≧80%) came out at 21 µg/mL; in assay [2] (setting [4]) it was 110 µM. Further, the “thiol efflux / extracellular thiols, in words” value in the assay with RAW 264.7 cells is given as “about half as much thiol efflux as the others”.
For the compound `C=CCSSC[C@@H](N)C(=O)O` [CySSA, S-allyl-L-mercaptocysteine], in assay [1], the “QR induction in the presence of increasing exogenous GSH” value was “progressively attenuated”. In addition, the “QR induction at a single dose” value in assay [1] is reported as “nearly a doubling of QR”. Also, the EC (2-fold QR induction) was 26 µg/mL in assay [1] (cell viability >50%) and 130 µM in assay [1] (setting [4]). Further, the IC50 turned out to be 9 µg/mL in assay [2] (cell viability ≧80%) and 47 µM in assay [2] (setting [4]).
On to `CCCSSC[C@H](NC(=O)CC[C@H](N)C(=O)O)C(=O)NCC(=O)O` [GSSP, S-propyl-L-mercaptoglutathione], for which the EC (2-fold QR induction) was 73 µg/mL in assay [1] (cell viability >50%) and 190 µM in assay [1] (setting [4]). Besides, at 125 µg/mL the inhibition in assay [2] was 34%. For the same compound, the “elevation of intracellular GSH over control” value in assay [3] is 50-70%.
For `CSSC[C@H](NC(=O)CC[C@H](N)C(=O)O)C(=O)NCC(=O)O` [GSSM, S-methlyl-L-mercaptoglutathione], the EC (2-fold QR induction) came to 87 µg/mL in assay [1] (cell viability >50%) and 250 µM in assay [1] (setting [4]). Further, in assay [2], 125 µg/mL produced 26% inhibition.
Turning to `CSSC[C@@H](N)C(=O)O` [CySSM, S-methyl-L-mercaptocysteine], the values for the EC (2-fold QR induction) in assay [1] (cell viability >50%) and in assay [1] (setting [4]) were 89 µg/mL and 530 µM, respectively. Besides, the IC50 in assay [2] (cell viability ≧80%) is 48 µg/mL; in assay [2] (setting [4]), 290 µM.
The matching figures for `CCCSSC[C@@H](N)C(=O)O` [CySSP, S-propyl-L-mercaptocysteine]: 92 µg/mL, 470 µM, 63 µg/mL and 320 µM.
